Literature values, collected in patent US20090156647A1, “Method for maintaining physiological pH levels during intensive physical exercise” (IOVATE T. & P. INC., priority 2007, published 2009).

Conditions: about 1.5 g of HICA daily after intense exercise for 42 days

SMILES: CC(C)CC(O)C(=O)O (centres unmarked) [HICA, 2-hydroxy-4-methylvaleric acid]
- delayed onset muscular soreness (DOMS) experienced by subjects: little to no DOMS
- total lean soft tissue mass: statistically significant increase
